In brackets after ≈: the same amount, converted by molar mass. Positions of bridges follow the written chain, without caps; N, C: chain ends. Non-standard residues stand in square brackets, D forms with d. Residues, ends and D or L forms follow the SMILES beside them. *: point of attachment. dPhe(3,4,5-F3) = N[C@H](Cc1cc(F)c(F)c(F)c1)C(=O)O; dPhe(4-CF3) = N[C@H](Cc1ccc(C(F)(F)F)cc1)C(=O)O; dPhe(4-Cl) = N[C@H](Cc1ccc(Cl)cc1)C(=O)O; Phe(4-F) = N[C@@H](Cc1ccc(F)cc1)C(=O)O; Phe(2-F) = N[C@@H](Cc1ccccc1F)C(=O)O; hhPhe = N[C@@H](CCCc1ccccc1)C(=O)O; dAoc(2) = CCCCCC[C@@H](N)C(=O)O; Octanoyl = CCCCCCCC(=O)*; Dab = NCC[C@H](N)C(=O)O

Common to all, as to assay type: functional
Assay [1] deals with Escherichia coli. The assay is described as follows: Antibacterial activity against Escherichia coli ATCC 25922 assessed as bacterial growth inhibition incubated for 20 hrs by broth microdilution method. Background: Dilution methods test growth across graded concentrations, often in twofold steps.
The test system of assay [2] is Klebsiella pneumoniae. Nature of the assay: Antimicrobial activity against Klebsiella pneumoniae ATCC 13883 assessed as bacterial growth inhibition incubated for 20 hrs by broth microdilution method.
Assay [3] has as its system Pseudomonas aeruginosa. The assay is described as follows: Antimicrobial activity against colistin resistant Pseudomonas aeruginosa 7197/19 assessed as bacterial growth inhibition incubated for 20 hrs by broth microdilution method.
Assay [4] deals with Acinetobacter baumannii. The assay is described as follows: Antimicrobial activity against colistin resistant Acinetobacter baumannii ATCC 3658/17 assessed as bacterial growth inhibition incubated for 20 hrs by broth microdilution method.
Assay [5] relates to Acinetobacter baumannii. Nature of the assay: Antimicrobial activity against Acinetobacter baumannii ATCC 19606 assessed as bacterial growth inhibition incubated for 20 hrs by broth microdilution method.
Assay [6] has as its system Escherichia coli. Nature of the assay: Antimicrobial activity against […] Escherichia coli harboring mcr-1 assessed as bacterial growth inhibition incubated for 20 hrs by broth microdilution method.
Assay [7] relates to Pseudomonas aeruginosa. Nature of the assay: Antimicrobial activity against Pseudomonas aeruginosa PAO1 assessed as bacterial growth inhibition incubated for 20 hrs by broth microdilution method.
For assay [8], the system named is Acinetobacter baumannii. Nature of the assay: Antimicrobial activity against colistin resistant Acinetobacter baumannii clinical isolate 4 assessed as bacterial growth inhibition incubated for 20 hrs by broth microdilution method.
The subject of assay [9] is Klebsiella pneumoniae. The assay is described as follows: Antimicrobial activity against colistin resistant Klebsiella pneumoniae clinical isolate 3 assessed as bacterial growth inhibition incubated for 20 hrs by broth microdilution method.
The subject of assay [10] is Klebsiella pneumoniae. The assay is described as follows: Antimicrobial activity against colistin resistant Klebsiella pneumoniae ATCC 13883 assessed as bacterial growth inhibition incubated for 20 hrs by broth microdilution method.
Assay [11] has as its system Klebsiella pneumoniae. Nature of the assay: Antimicrobial activity against colistin resistant Klebsiella pneumoniae clinical isolate 1 assessed as bacterial growth inhibition incubated for 20 hrs by broth microdilution method.
Assay [12] has as its system Escherichia coli. The assay is described as follows: Antibacterial activity against […] Escherichia coli clinical isolate 1 assessed as bacterial growth inhibition incubated for 20 hrs by broth microdilution method.
Assay [13] deals with Pseudomonas aeruginosa. The assay is described as follows: Antimicrobial activity against colistin resistant Pseudomonas aeruginosa clinical isolate 1 assessed as bacterial growth inhibition incubated for 20 hrs by broth microdilution method.

The MIC is the smallest concentration in the dilution series that meets the test's criterion for growth inhibition. `CCCCCCCC(=O)N[C@@H](CCN)C(=O)N[C@H](C(=O)N[C@@H](CCN)C(=O)N[C@H]1CCNC(=O)[C@H]([C@@H](C)O)NC(=O)[C@H](CCN)NC(=O)[C@H](CCN)NC(=O)[C@H](Cc2ccccc2)NC(=O)[C@@H](CCCCCC)NC(=O)[C@H](CCN)NC1=O)[C@@H](C)O` (Octanoyl-[Dab]T[Dab][Dab][Dab][dAoc(2)]F[Dab][Dab]T; lactam 4-C): the MIC with Escherichia coli [1] turned out to be 0.25 µg/mL (≈ 0.205 µM); in the assay with Klebsiella pneumoniae [2] it was 1 µg/mL (≈ 0.821 µM); in the assay with Pseudomonas aeruginosa [3] it was 0.25 µg/mL (≈ 0.205 µM); in the assay on Acinetobacter baumannii [4], 0.5 µg/mL (≈ 0.411 µM); in the assay on Acinetobacter baumannii [5] it was 0.25 µg/mL (≈ 0.205 µM).

On to `CCCCCCCC(=O)N[C@@H](CCN)C(=O)N[C@H](C(=O)N[C@@H](CCN)C(=O)N[C@H]1CCNC(=O)[C@H]([C@@H](C)O)NC(=O)[C@H](CCN)NC(=O)[C@H](CCN)NC(=O)[C@H](Cc2ccccc2F)NC(=O)[C@@H](CC(C)C)NC(=O)[C@H](CCN)NC1=O)[C@@H](C)O` (Octanoyl-[Dab]T[Dab][Dab][Dab][dL][Phe(2-F)][Dab][Dab]T; lactam 4-C), for which the MIC was found to be 0.06 µg/mL (≈ 0.0497 µM) in the assay with Escherichia coli [1], 2 µg/mL (≈ 1.66 µM) in the assay with Escherichia coli [6], 4 µg/mL (≈ 3.31 µM) with Klebsiella pneumoniae [2] and 0.125 µg/mL (≈ 0.104 µM) in the assay on Acinetobacter baumannii [5].

For `CCCCCCCC(=O)N[C@@H](CCN)C(=O)N[C@H](C(=O)N[C@@H](CCN)C(=O)N[C@H]1CCNC(=O)[C@H]([C@@H](C)O)NC(=O)[C@H](CCN)NC(=O)[C@H](CCN)NC(=O)[C@H](Cc2ccc(F)cc2)NC(=O)[C@@H](CC(C)C)NC(=O)[C@H](CCN)NC1=O)[C@@H](C)O` (Octanoyl-[Dab]T[Dab][Dab][Dab][dL][Phe(4-F)][Dab][Dab]T; lactam 4-C), the MIC in the assay on Escherichia coli [6] came to 2 µg/mL (≈ 1.66 µM); with Pseudomonas aeruginosa [3], 32 µg/mL (≈ 26.5 µM); in the assay on Acinetobacter baumannii [4], 16 µg/mL (≈ 13.3 µM); with Pseudomonas aeruginosa [7], 0.125 µg/mL (≈ 0.104 µM); with Acinetobacter baumannii [5] it was 0.25 µg/mL (≈ 0.207 µM).

As to `CCCCCCCC(=O)N[C@@H](CCN)C(=O)N[C@H](C(=O)N[C@@H](CCN)C(=O)N[C@H]1CCNC(=O)[C@H]([C@@H](C)O)NC(=O)[C@H](CCN)NC(=O)[C@H](CCN)NC(=O)[C@H](CCCc2ccccc2)NC(=O)[C@@H](CC(C)C)NC(=O)[C@H](CCN)NC1=O)[C@@H](C)O` (Octanoyl-[Dab]T[Dab][Dab][Dab][dL][hhPhe][Dab][Dab]T; lactam 4-C), the MIC with Escherichia coli [1] was 0.5 µg/mL (≈ 0.411 µM); in the assay on Escherichia coli [6], 1 µg/mL (≈ 0.821 µM); with Pseudomonas aeruginosa [3], 0.5 µg/mL (≈ 0.411 µM); in the assay on Acinetobacter baumannii [4], 0.5 µg/mL (≈ 0.411 µM); in the assay on Pseudomonas aeruginosa [7] it was 0.5 µg/mL (≈ 0.411 µM); with Acinetobacter baumannii [5], under 0.125 µg/mL.

For `CCCCCCCC(=O)N[C@@H](CCN)C(=O)N[C@H](C(=O)N[C@@H](CCN)C(=O)N[C@H]1CCNC(=O)[C@H]([C@@H](C)O)NC(=O)[C@H](CCN)NC(=O)[C@H](CCN)NC(=O)[C@H](CC(C)C)NC(=O)[C@@H](Cc2cc(F)c(F)c(F)c2)NC(=O)[C@H](CCN)NC1=O)[C@@H](C)O` (Octanoyl-[Dab]T[Dab][Dab][Dab][dPhe(3,4,5-F3)]L[Dab][Dab]T; lactam 4-C), the MIC with Escherichia coli [1] was under 0.125 µg/mL; in the assay with Escherichia coli [6], 1 µg/mL (≈ 0.804 µM); with Klebsiella pneumoniae [2] it was under 0.125 µg/mL; in the assay on Pseudomonas aeruginosa [3], 0.25 µg/mL (≈ 0.201 µM); in the assay on Pseudomonas aeruginosa [7], under 0.125 µg/mL; in the assay with Acinetobacter baumannii [5], under 0.125 µg/mL.

`CCCCCCCC(=O)N[C@@H](CCN)C(=O)N[C@H](C(=O)N[C@@H](CCN)C(=O)N[C@H]1CCNC(=O)[C@H]([C@@H](C)O)NC(=O)[C@H](CCN)NC(=O)[C@H](CCN)NC(=O)[C@H](CC(C)C)NC(=O)[C@@H](Cc2ccc(C(F)(F)F)cc2)NC(=O)[C@H](CCN)NC1=O)[C@@H](C)O` (Octanoyl-[Dab]T[Dab][Dab][Dab][dPhe(4-CF3)]L[Dab][Dab]T; lactam 4-C): the MIC in the assay with Escherichia coli [1] was 0.25 µg/mL (≈ 0.199 µM); in the assay on Escherichia coli [6], 1 µg/mL (≈ 0.795 µM); in the assay with Pseudomonas aeruginosa [3], 0.25 µg/mL (≈ 0.199 µM); with Acinetobacter baumannii [4] it was 0.5 µg/mL (≈ 0.398 µM); in the assay on Acinetobacter baumannii [5] it was 0.25 µg/mL (≈ 0.199 µM).

With `CCCCCCCC(=O)N[C@@H](CCN)C(=O)N[C@H](C(=O)N[C@@H](CCN)C(=O)N[C@H]1CCNC(=O)[C@H]([C@@H](C)O)NC(=O)[C@H](CCN)NC(=O)[C@H](CCN)NC(=O)[C@H](CC(C)C)NC(=O)[C@@H](Cc2ccc(Cl)cc2)NC(=O)[C@H](CCN)NC1=O)[C@@H](C)O` (Octanoyl-[Dab]T[Dab][Dab][Dab][dPhe(4-Cl)]L[Dab][Dab]T; lactam 4-C), the minimal inhibitory concentration (MIC) was 16 µg/mL (≈ 13.1 µM) in the assay with Acinetobacter baumannii [8]; 16 µg/mL (≈ 13.1 µM) in the assay with Klebsiella pneumoniae [9]; 16 µg/mL (≈ 13.1 µM) in the assay on Klebsiella pneumoniae [10]; 16 µg/mL (≈ 13.1 µM) in the assay on Klebsiella pneumoniae [11]; under 0.125 µg/mL with Klebsiella pneumoniae [2]; 0.25 µg/mL (≈ 0.204 µM) with Pseudomonas aeruginosa [3]. Further, the MIC in the assay with Acinetobacter baumannii [4] is 0.25 µg/mL (≈ 0.204 µM); in the assay on Escherichia coli [12], 2 µg/mL (≈ 1.63 µM); in the assay with Pseudomonas aeruginosa [13], 4 µg/mL (≈ 3.27 µM); in the assay with Pseudomonas aeruginosa [7], 0.25 µg/mL (≈ 0.204 µM).

These data come from ChEMBL document CHEMBL5537158, “Polymyxins with Potent Antibacterial Activity against Colistin-Resistant Pathogens: Fine-Tuning Hydrophobicity with Unnatural Amino Acids” (J Med Chem, 2024).
